Measured values from patent US8716296B2 (Ingenium Pharmaceuticals GmbH, priority 2007, dated 2014).

Assays:
[1] = system: LPS induced mice; assay: LPS in vivo assay, model of cytokine repression in vivo; design: species or system mice (strain C3HeB/FeJ); conditions: 10 or 30 mg/kg i.p. 30 min prior to LPS, blood 90 min after LPS, ELISA, versus vehicle
Description: For the LPS induced model of septic shock, mice receive an intraperitoneal (i.p.) injection of 30 μg bacterial Lipopolysaccharide (LPS; L2630 SIGMA) in saline. Said LPS-mediated initiation of the inflammatory signalling cascade results in increasing blood serum concentrations of cytokines such as e.g. TNFα, IL-6 and IL1β. Blood can be taken from these animals at defined time points. Thereafter, serum will be separated and the samples can be stored at −80° C. until cytokine concentrations are measured using commercial ELISA assays. (A L Moreira et al., Braz J Med Biol Res 1997; 30:1199-1207).
Wildtype mice (strain C3HeB/FeJ) (age, sex and weight matched) were injected with 30 μg LPS (SIGMA) intraperitoneally. 90 minutes after LPS administration these animals were anaesthetized with 0.1 m1/10 g bodyweight Ketamine-Rompun (50/20 mg/ml), and blood for serum preparation was taken via cardiac puncture.
Pharmacological treatment groups (n=4) of LPS mice received intraperitoneal (i. p.) injections of CDK-inhibiting compounds or the vehicle (negative control), respectively. In particular, compounds #1A and 16A were administered.
10 or 30 mg/kg (compound per bodyweight) of a CDK inhibitor, dissolved in 20% DMSO, 5% Tween 80, 10% Tris 1M pH8, 20% PEG400, 45% PBS was administered as a single dosage 30 min prior to LPS stimulation. Vehicle control was administered in the same manner.
90 minutes (min) after LPS stimulation, blood samples were taken from the mice. Previously, the 90 min time point had been identified as the peak of TNF alpha expression in this animal model by a time course experiment.
Blood samples (˜500 μl/animal) from the LPS animals were incubated on wet ice for 30 min after cardiac puncture. Afterwards the samples were centrifuged for 15 min at 13.000 rpm. Serum was separated from the clot and stored frozen at −80° C.
Serum concentrations of TNF alpha and IL6 within the samples were measured by using commercial ELISA Kits (Natutec) according to the manufacturers instructions.

[2] = system: LPS induced THP-1 macrophages; assay: In vitro THP-1 assay, model of cytokine inhibition; format: cell-based, human; conditions: differentiated THP-1 cells, 60 min pre-incubation, LPS 4-48 h, ELISA, versus vehicle (DMSO)
Description: The human THP-1 cell line can be utilized as an in vitro model of cytokine expression as mediated by Lipopolysaccharide (LPS) or Tumor Necrosis Factorα [TNFα].
Monocytic THP-1 cells (ATCC; TIB-202) can be differentiated into macrophage-like cells expressing pro-inflammatory cytokines like TNFα, IL6 and IL1β upon induction with LPS or by TNFα (autocrine induction) itself.
THP-1 cells are grown in modified RPMI-1640 medium (ATCC, Cat. No. 30-2001) supplemented with 10% FCS and 1% Pen/Strep. For cytokine inhibition assays, cells are seeded at a density of 5×10^5 cells/ml into 6-well plates in standard growth medium supplemented with 100 ng/ml PMA (Sigma, P1585) to induce differentiation into macrophage-like cells. After 24 hours, the medium is replaced with standard growth medium (without PMA) and the cells are incubated for another 48 hours to complete differentiation.
After 72 h of differentiation, the medium is replaced with serum free growth medium, and CDK-inhibiting compounds as well as reference compounds such as positive and negative controls, each dissolved in DMSO are added at concentrations ranging from 0.5 to 5 μM (final concentration of DMSO in the well is 0.1%). Cells are incubated for 60 min with compounds prior to stimulation with 100 ng/ml LPS (Sigma, L2630) for another 4-48 hours. Supernatants are collected and assayed immediately for cytokine expression, e.g. for TNFα, IL-6 and IL-1b using commercially available sandwich ELISA assays (eBioscience, Cat. No 88-7346, 88-7066, 88-7010) or kept frozen at […] until evaluation.
Concentrations of TNFα, IL6 and IL1β within the cell culture supernatants are measured by using commercial ELISA Kits (eBioscience) according to the manufacturers instructions.
CDK-inhibitory compounds #1A, 16A, 20A, and 25A were administered to differentiated THP-1 cells in triplicates as described above (see section 2.). After 60 min of pre-incubation with test or reference compound (SB203580, a p38 inhibitor and BMS345541, an IKK-inhibitor) alone, cells were stimulated with LPS. After incubation for 4-48 h, supernatants were collected and ELISA based determinations of cytokine supernatant concentrations were performed as described in section 3, supra.

[3] = system: SNI mice; assay: Spared nerve injury (SNI) model of chronic neuropathic pain, von Frey assay; format: in vivo, mice (strain C3HeB/FeJ); conditions: 30 mg/kg p.o., 30 min before measurement, day 107 post SNI, versus vehicle
From the text: As outlined above, the spared nerve injury (SNI) model (see FIG. 1) involves a lesion of two of the three terminal branches of the sciatic nerve (tibial and common peroneal nerves) of experimental animals, leaving the sural nerve intact. SNI results in mechanical and thermal allodynia in the non-injured sural nerve skin territory (Decosterd and Woolf, Pain 2000; 87:149-158. (2) Tsujino et al., Mol. Cel. Neurosci. 2000; 15:170-182).
Wildtype mice (strain C3HeB/FeJ) (age, sex and weight matched) were anesthetized with Hypnorm (0.315 mg/ml fentanyl citrate+10 mg/ml fluanisone; Janssen)/Hypnovel (5 mg/ml midazolam; Roche Applied Sciences)/water at a ratio of 1:1:2 at 4 μl/g prior to surgical preparation. […]
30 mg/kg of a CDK inhibitor, dissolved in 400 μl of 2% Hydroxprolylcellulose; 0.25% Lactic Acid (85% solution) was administered via per oral application 30 min prior to von Frey measurements (mechanical allodynia). […] Reflex nociceptive responses to mechanical stimulation were measured in a von Frey assay 30 min after each injection. […]
Mechanical thresholds of SNI mice were quantified using the up-down method based on Chaplan et al. (1994) and Malmberg and Basbaum (1998). […]

| SMILES | IL6 protein concentration in the blood serum [1] | TNFα protein concentration in the blood serum [1] | IL6 protein concentration in the cell supernatant [2] | TNFα protein concentration in the cell supernatant [2] | paw withdrawal threshold to mechanical stimulation (von Frey) [3] |
| --- | --- | --- | --- | --- | --- |
| CCOc1ccccc1-c1cc(NC(=O)C2CCNCC2)ncn1 [Compound 1A, Piperidine-4-carboxylic acid [6-(2-ethoxy-phenyl)-pyrimidin-4-yl]-amide] | significant repressive effect | significant repressive effect | significant inhibitory effect | significant inhibitory effect |  |
| COc1ccccc1-c1cc(NC(=O)C2CCCNC2)ncn1 (stereo not drawn) [Compound 16A, Piperidine-3-carboxylic acid [6-(2-methoxy-phenyl)-pyrimidin-4-yl]amide] | significant repressive effect | significant repressive effect | significant inhibitory effect | significant inhibitory effect | significant increase of threshold values |
